Laboratory results as given in ChEMBL document CHEMBL1201862, “PubChem BioAssay data set” (2004).
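Compound exposure: 48 hours, 5 concentrations, 96-well plates. Here, GI50 denotes the concentration required for 50% inhibition of growth.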 Active and inactive are the calls of the source. Cut-off read from the data, not from the text of the source: active = GI50 up to about 1.1 µM and inactive = higher.

Columns and labels:
Assay in all cases: NCI tumour cell line growth inhibition, 48 h
[1] = tested on: A549
[2] = tested on: NCI-H226
[3] = tested on: HCC 2998
[4] = tested on: SF-268
[5] = tested on: UACC-62
[6] = tested on: MDA-MB-435
[7] = tested on: K562
[8] = tested on: NCI-H460
[9] = tested on: CAKI-1
[10] = tested on: SR
[11] = tested on: CCRF-CEM
[12] = tested on: SF-295
[13] = tested on: MCF7
[14] = tested on: T47D
[15] = tested on: HCT-116
[16] = tested on: Malme-3M
[17] = tested on: SW-620
[18] = tested on: 786-0
[19] = tested on: SK-MEL-2
[20] = tested on: MOLT-4
[21] = tested on: UACC-257
[22] = tested on: NCI-H23
[23] = tested on: OVCAR-4
[24] = tested on: MDA-N
[25] = tested on: OVCAR-3
[26] = tested on: IGROV-1
[27] = tested on: HOP-92
[28] = tested on: SK-MEL-28
[29] = tested on: MDA-MB-231
[30] = tested on: UO-31
[31] = tested on: HT-29
[32] = tested on: SN12C
[33] = tested on: PC-3
[34] = tested on: Hs-578T
[35] = tested on: NCI/ADR-RES
[36] = tested on: SK-MEL-5
[37] = tested on: DU-145
[38] = tested on: COLO 205
[39] = tested on: SF-539
[40] = tested on: U-251
[41] = tested on: OVCAR-5
[42] = tested on: ACHN
[43] = tested on: NCI-H522
[44] = tested on: HL-60
[45] = tested on: RPMI-8226
[46] = tested on: SNB-75
[47] = tested on: SK-OV-3
[48] = tested on: M14
[49] = tested on: A498
[50] = tested on: LOX IMVI
[51] = tested on: KM12
[52] = tested on: EKVX
[53] = tested on: HCT-15
[54] = tested on: SNB-19
[55] = tested on: OVCAR-8
[56] = tested on: RXF 393
[57] = tested on: BT-549
[58] = tested on: TK-10
[59] = tested on: HOP-62

COC(=O)c1ccccc1NC(=O)/C(=N\NC(C)(C)C)C(C#N)c1nc(-c2ccc([N+](=O)[O-])cc2)cs1 (stereo not given)
GI50 [1]: > 100 µM (inactive) | GI50 [2]: > 100 µM (inactive) | GI50 [3]: > 100 µM (inactive) | GI50 [4]: > 100 µM (inactive) | GI50 [5]: > 100 µM (inactive) | GI50 [6]: > 100 µM (inactive) | GI50 [7]: > 100 µM (inactive) | GI50 [8]: > 100 µM (inactive) | GI50 [9]: > 100 µM (inactive) | GI50 [10]: > 100 µM (inactive) | GI50 [11]: > 100 µM (inactive) | GI50 [12]: > 100 µM (inactive) | GI50 [13]: > 100 µM (inactive) | GI50 [14]: > 100 µM (inactive) | GI50 [15]: > 100 µM (inactive) | GI50 [16]: > 100 µM (inactive) | GI50 [17]: > 100 µM (inactive) | GI50 [18]: > 100 µM (inactive) | GI50 [19]: > 100 µM (inactive) | GI50 [20]: > 100 µM (inactive) | GI50 [21]: > 100 µM (inactive) | GI50 [22]: > 100 µM (inactive) | GI50 [23]: > 100 µM (inactive) | GI50 [24]: > 100 µM (inactive) | GI50 [25]: > 100 µM (inactive) | GI50 [26]: > 100 µM (inactive) | GI50 [27]: > 100 µM (inactive) | GI50 [28]: > 100 µM (inactive) | GI50 [29]: > 100 µM (inactive) | GI50 [30]: > 100 µM (inactive) | GI50 [31]: > 100 µM (inactive) | GI50 [32]: > 100 µM (inactive) | GI50 [33]: > 100 µM (inactive) | GI50 [34]: > 100 µM (inactive) | GI50 [35]: > 100 µM (inactive) | GI50 [36]: > 100 µM (inactive) | GI50 [37]: > 100 µM (inactive) | GI50 [38]: > 100 µM (inactive) | GI50 [39]: > 100 µM (inactive) | GI50 [40]: > 100 µM (inactive) | GI50 [41]: > 100 µM (inactive) | GI50 [42]: > 100 µM (inactive) | GI50 [43]: > 10 µM (inactive) | GI50 [44]: > 100 µM (inactive) | GI50 [45]: > 100 µM (inactive) | GI50 [46]: > 100 µM (inactive) | GI50 [47]: > 100 µM (inactive) | GI50 [48]: > 100 µM (inactive) | GI50 [49]: > 100 µM (inactive) | GI50 [50]: > 100 µM (inactive) | GI50 [51]: > 100 µM (inactive) | GI50 [52]: > 100 µM (inactive) | GI50 [53]: > 100 µM | GI50 [54]: > 100 µM (inactive) | GI50 [55]: > 100 µM (inactive) | GI50 [56]: > 100 µM (inactive) | GI50 [57]: > 100 µM (inactive)

CC(C)(C)OC(=O)NC1CC=CCC1NC(=O)OC(C)(C)C (stereo not given)
GI50 [1]: > 100 µM (inactive) | GI50 [2]: > 100 µM (inactive) | GI50 [3]: > 100 µM (inactive) | GI50 [4]: > 100 µM (inactive) | GI50 [5]: > 100 µM (inactive) | GI50 [6]: > 100 µM (inactive) | GI50 [7]: 97.9 µM (inactive) | GI50 [58]: > 100 µM (inactive) | GI50 [8]: > 100 µM (inactive) | GI50 [9]: > 100 µM (inactive) | GI50 [10]: > 100 µM (inactive) | GI50 [11]: > 100 µM (inactive) | GI50 [12]: > 100 µM (inactive) | GI50 [13]: > 100 µM (inactive) | GI50 [14]: > 100 µM (inactive) | GI50 [15]: > 100 µM (inactive) | GI50 [16]: > 100 µM (inactive) | GI50 [17]: > 100 µM (inactive) | GI50 [18]: > 100 µM (inactive) | GI50 [19]: > 100 µM (inactive) | GI50 [20]: > 100 µM (inactive) | GI50 [21]: > 100 µM (inactive) | GI50 [22]: > 100 µM (inactive) | GI50 [23]: > 100 µM (inactive) | GI50 [24]: > 100 µM (inactive) | GI50 [25]: > 100 µM (inactive) | GI50 [26]: > 100 µM (inactive) | GI50 [27]: > 100 µM (inactive) | GI50 [28]: > 100 µM (inactive) | GI50 [29]: > 100 µM (inactive) | GI50 [30]: > 100 µM (inactive) | GI50 [31]: > 100 µM (inactive) | GI50 [32]: > 100 µM (inactive) | GI50 [33]: > 100 µM (inactive) | GI50 [34]: > 100 µM (inactive) | GI50 [35]: > 100 µM (inactive) | GI50 [36]: 97.7 µM (inactive) | GI50 [37]: > 100 µM (inactive) | GI50 [38]: > 100 µM (inactive) | GI50 [39]: > 100 µM (inactive) | GI50 [40]: > 100 µM (inactive) | GI50 [41]: > 100 µM (inactive) | GI50 [42]: > 100 µM (inactive) | GI50 [43]: > 100 µM (inactive) | GI50 [44]: > 100 µM (inactive) | GI50 [45]: > 100 µM (inactive) | GI50 [46]: > 100 µM (inactive) | GI50 [47]: > 100 µM (inactive) | GI50 [48]: > 100 µM (inactive) | GI50 [49]: > 100 µM (inactive) | GI50 [50]: > 100 µM (inactive) | GI50 [59]: > 100 µM (inactive) | GI50 [51]: > 100 µM (inactive) | GI50 [53]: > 100 µM | GI50 [54]: > 100 µM (inactive) | GI50 [55]: > 100 µM (inactive) | GI50 [56]: 95.5 µM (inactive) | GI50 [57]: > 100 µM (inactive)
